For assay [1], the target named is T1, PDIA1 (Homo sapiens, UniProt P07237).
T1 construct: The mature human PDIA1 with an N-terminal His6x-tag was expressed and purified; His6 (N); made in house
Briefly: Insulin turbidity assay, disulfide reductase activity. Format: biochemical. The conditions noted are these: insulin substrate, PDIA1 800 nM, reducing conditions. The protocol:
(§1) To further evaluate the inhibitory effect of punicalin and punicalagin on the enzymatic activity of the two proteins, we performed a different assay using insulin, a physiologically more appropriate substrate. The results obtained are reported in Figure 4 and show again a lesser inhibitory effect of punicalin compared to punicalagin, as observed with the glutathione-based assay.
PDI disulfide reductase activity was assayed by measuring the reduction of insulin catalyzed by PDIs with DTT. A 50 μM stock solution of each PDI was reduced using TCEP (5 mM final concentration) for 90 min at room temperature. […] After incubation, an equal volume of the 2× reaction mixture (consisting of DTT 50 μM and human insulin 0.32 mM) was added. Protein activity was evaluated by monitoring the increase in turbidity of the solutions at 600 nm.
(§2) In both assays, the inhibition constants were extrapolated by GraphPad Prism 8.0 software (GraphPad Software, San Diego, CA, USA), plotting the obtained data as logarithm dose–response curves.

Assay [2] concerns the target T2, PDIA3 (Homo sapiens, UniProt P30101).
T2 construct: The mature recombinant form (devoid of the N-terminal presence) of the human PDIA3 protein was expressed and purified; made in house
T2 sequence (P30101 25-505): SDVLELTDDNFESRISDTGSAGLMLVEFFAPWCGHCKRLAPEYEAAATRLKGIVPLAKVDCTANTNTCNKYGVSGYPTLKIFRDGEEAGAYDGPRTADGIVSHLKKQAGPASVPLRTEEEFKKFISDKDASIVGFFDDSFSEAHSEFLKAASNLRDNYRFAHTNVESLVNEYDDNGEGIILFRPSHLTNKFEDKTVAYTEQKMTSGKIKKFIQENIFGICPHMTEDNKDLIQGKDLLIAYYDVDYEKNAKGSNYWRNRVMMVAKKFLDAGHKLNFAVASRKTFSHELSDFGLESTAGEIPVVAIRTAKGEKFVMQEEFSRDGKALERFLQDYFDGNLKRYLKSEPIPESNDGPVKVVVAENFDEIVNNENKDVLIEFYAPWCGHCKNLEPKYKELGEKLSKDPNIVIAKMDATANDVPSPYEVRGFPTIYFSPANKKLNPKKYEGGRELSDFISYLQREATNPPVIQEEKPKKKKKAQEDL
The description is as above. Format: biochemical. The conditions noted are these: insulin substrate, PDIA3 1600 nM, reducing conditions. The protocol: as §1
PDI disulfide reductase activity was assayed by measuring the reduction of insulin catalyzed by PDIs with DTT. A 50 μM stock solution of each PDI was reduced using TCEP (5 mM final concentration) for 90 min at room temperature. Aliquots of the stock solution were diluted in the incubation mixture (PDIA1 1.6 µM and PDIA3 3.2 µM) containing sodium phosphate buffer (100 mM sodium phosphate, 2 mM EDTA, pH 7.0) added with punicalin/punicalagin (concentration ranging from 0 to 50 µM) and incubated at 37 °C for 1 h. After incubation, an equal volume of the 2× reaction mixture (consisting of DTT 50 μM and human insulin 0.32 mM) was added. Protein activity was evaluated by monitoring the increase in turbidity of the solutions at 600 nm.
as §2

Assay [3] concerns the target T1, PDIA1. The assay can be described thus: Differential scanning fluorimetry (protein thermal shift). Format: binding. The conditions noted are these: PDIA1, compound 20 µM. How it is done: (§3) The effect of punicalin and punicalagin on the stability of both proteins was evaluated by differential scanning fluorimetry (DSF). Initially, PDIA1 and PDIA3 were incubated at 25 °C for 20 min with both substances at 5 µM and 20 µM concentrations. […] The reading was optimized at intervals of 0.2 °C every 5 s. Once the fluorescence profile was obtained, the data were analyzed with the GraphPad prism program, by either fitting data with a Boltzmann equation or calculating the first derivative. In DSF analyses, a gradual increase in fluorescence is observed, due to a conformational change in the protein, which reaches a maximum value and then decreases because of protein precipitation.
(§4) To evaluate Tm, we focused the attention on the main transition, and thus we fitted, with a Boltzmann equation, the data in the range of 25–55 °C for PDIA3 and in the range of 45–70 °C for PDIA1. Again, the two substances show a destabilizing effect, which was more evident for PDIA3 than for PDIA1. In fact, punicalagin and punicalin at a 20 µM concentration cause a shift of Tm of at least 6 °C in the case of PDIA3, while this is approximately 3 °C for PDIA1 (Figure 7).
(§5) Protein stability in the absence and presence of punicalagin/punicalin was tested by means of the fluorescence-based thermal stability assay or differential scanning fluorimetry (DSF) developed by Pantoliano and coworkers. DSF records the fluorescence emission signal from the binding of a dye (SYPRO orange) to the exposed hydrophobic patches upon protein unfolding. Fluorescence measurements were performed using a CFX96 Connect RT-PCR instrument (BioRad, Hercules, CA, USA). Aliquots of 18 μL of protein solution (2 μM), freshly diluted in Tris Buffered saline (50 mM TrisHCl, pH 8.0, 150 mM NaCl) containing 0.1 mM DTT, 0.2 mM EDTA, and 1: 1000 dilution of SYPRO Orange (50 mM stock solution in DMSO), were distributed in a 96-well plate. Sample wells were added with punicalagin or punicalin at a final concentration of 5 uM or 20 μM by adding 2 μL of a 10-fold concentrated freshly prepared stock solution. As control, the protein solution was added with 2 μL of the dilution buffer. A melting point analysis was recorded by increasing the temperature from 25 to 70 °C with an increment of 0.2 °C every 5 s and reading, at each temperature, the fluorescence in fluorescence resonance energy transfer mode (FRET). Each measure was the average of three sample well readings, and each DSF experiment was repeated at least three times. To calculate Tm values, DSF data from the melting curve were exported and fitted to a Boltzmann equation using GraphPad software. The effect of punicalagin and punicalin was evaluated comparing the Tm values in the presence and absence of each molecule.

Assay [4] deals with T2, PDIA3. The assay is described as above. Format: binding. How it is done: as §3, §4, §5
Assay [5] has as its target T1, PDIA1. The arrangement: method as in Paglia et al. [40]. The conditions noted are these: reduced PDIA1; ref Paglia et al. [40]; cited from earlier work.
Assay [6] deals with T2, PDIA3. The arrangement: method as in Paglia et al. [40]. As to conditions: reduced PDIA3; ref Paglia et al. [40]; cited from earlier work.
The test system of assay [7] is PDIA3. The arrangement: method as in PMID 37686085. As to conditions: 30 µM, 24 h after treatment; ref [34]; cited from earlier work.

T1 sequence (P07237 18-508): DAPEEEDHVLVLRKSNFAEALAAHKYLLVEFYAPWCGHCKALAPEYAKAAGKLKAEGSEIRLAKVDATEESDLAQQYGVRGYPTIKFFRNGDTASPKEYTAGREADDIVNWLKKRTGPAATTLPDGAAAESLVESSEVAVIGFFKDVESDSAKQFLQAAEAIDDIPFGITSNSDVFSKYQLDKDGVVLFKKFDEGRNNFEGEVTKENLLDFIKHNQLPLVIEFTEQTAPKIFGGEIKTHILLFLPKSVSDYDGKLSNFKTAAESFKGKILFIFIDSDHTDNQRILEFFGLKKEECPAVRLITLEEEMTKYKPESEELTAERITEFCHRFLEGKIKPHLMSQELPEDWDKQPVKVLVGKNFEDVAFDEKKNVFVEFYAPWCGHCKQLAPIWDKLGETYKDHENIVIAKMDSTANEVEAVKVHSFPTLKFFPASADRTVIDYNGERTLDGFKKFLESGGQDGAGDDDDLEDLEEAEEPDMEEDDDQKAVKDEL

Take `O=C1O[C@H]2[C@@H]3OC(=O)c4cc(O)c(O)c(O)c4-c4c(O)c(O)c5oc(=O)c6c(c(O)c(O)c7oc(=O)c4c5c76)-c4c(cc(O)c(O)c4O)C(=O)OC[C@H]3OC(O)[C@@H]2OC(=O)c2cc(O)c(O)c(O)c2-c2c1cc(O)c(O)c2O` (mixture of isomers) [Punicalagin, punicalagin]: the IC50 came to 13.7 µM in assay [1] and 8.8 µM in assay [2]. Further, the “shift towards lower temperature of second main transition (first-derivative graph)” value in assay [3] was “about 5 °C”. Also, the “shift of Tm (destabilizing, Boltzmann fit)” value in assay [3] (fit range 45–70 °C) was “approximately 3 °C”; in assay [4] (PDIA3, compound 20 µM, fit range 25–55 °C) it was “at least 6 °C”. In addition, the “left shift of first transition (first-derivative graph)” value in assay [4] (PDIA3, compound 20 µM) is “about 3 °C”. The “shift towards lower temperature of second transition (first-derivative graph)” value in assay [4] (PDIA3, compound 20 µM) is “more than 10 °C”. Further, the “Tm of PDIA3 after addition of compound” value in assay [4] (PDIA3 alone Tm 46 °C) is “below 40 °C”. In addition, the “Stern–Volmer constant (KSV)” value is listed as 97.9 ± 2.1 M^−1 × 10^3 in assay [5] and 157.1 ± 1.9 M^−1 × 10^3 in assay [6]. Moreover, the “formation of PDIA3 protein aggregates” value in assay [7] is “induced the formation of protein aggregates”.
